Results from patent US20230091810A1, “FIRST-IN-CLASS OF SHMT2 AND MTHFD2 INHIBITORS AS ANTITUMOR AGENTS” (Duquesne University of the Holy Spirit, priority 2017, published 2023).
One block for each compound: values may come before it.

Legend:
[1] = tested on: H460 cells; test: glycine/nucleoside protection of growth inhibition in H460 cells; format: cell-based, human
Method: We also tested the protective effects of AICA (320 µM) which is metabolized to AICAR (ZMP) (AICARFTase substrate), thus circumventing the GARFTase step in de novo purine biosynthesis (27) (see FIG. 1). […] Analogous results were obtained with HCT116 and MIA PaCa-2 tumor cells (see FIG. 14).
(§1) For proliferation assays of the HCT116, H460, and MIA PaCa2 tumor cell lines, the cells were plated in 96-well plates in an identical manner to the CHO experiments, except that the maximal drug concentration was increased to 10 µM. Glycine/nucleoside protection experiments in CHO and tumor cell lines were performed in folate- and glycine-free RPMI 1640/10% dialyzed fetal bovine serum supplemented with 25 nM leucovorin without additions, or in the presence of adenosine (60 µM), thymidine (10 µM), glycine (130 µM) and/or 5-aminoimidazole-4-carboxamide (AICA) (320 µM). Growth of metabolite-treated cells was normalized to controls treated with metabolites and vehicle (i.e., DMSO) both singly and in combination. Treatments with all metabolites were performed in parallel on the same plate for a given drug.

[2] = biological target: T1, SHMT2 (Homo sapiens, UniProt P34897); test: in vitro inhibition of purified SHMT2, coupled SHMT2-MTHFD2 assay with NADH readout; conditions: purified N-terminally His-tagged enzyme; compounds as monoglutamates; * designates one experiment
T1 sequence (P34897 30-504): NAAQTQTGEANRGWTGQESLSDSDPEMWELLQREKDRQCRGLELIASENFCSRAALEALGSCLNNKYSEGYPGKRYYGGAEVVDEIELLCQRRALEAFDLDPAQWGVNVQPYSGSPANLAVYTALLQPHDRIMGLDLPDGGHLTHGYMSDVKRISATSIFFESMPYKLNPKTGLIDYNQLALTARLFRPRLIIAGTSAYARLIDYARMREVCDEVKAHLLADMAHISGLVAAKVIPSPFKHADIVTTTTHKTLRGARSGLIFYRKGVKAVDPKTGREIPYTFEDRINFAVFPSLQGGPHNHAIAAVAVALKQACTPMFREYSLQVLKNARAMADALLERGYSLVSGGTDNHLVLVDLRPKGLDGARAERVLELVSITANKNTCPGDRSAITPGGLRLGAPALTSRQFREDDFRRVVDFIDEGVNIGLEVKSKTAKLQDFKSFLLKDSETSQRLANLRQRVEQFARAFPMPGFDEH

[3] = tested on: RT16 (FR alpha) (CHO); test: proliferation assay, RT16 CHO cells expressing FR alpha only; format: cell-based, Chinese hamster; conditions: folate-/glycine-free RPMI1640 with 25 nM leucovorin; 96 h; read-out: IC50s (SE) RT16 (FR alpha) (CHO)
Method: (§2) Proliferation assays were performed with engineered Chinese hamster ovary (CHO) cell lines R2 (transporter-null), PC43-10 (expresses RFC only), RT16 (FRα only), and R2/PCFT4 (PCFT only) cultured in folate-/glycine-free RPMI1640 supplemented with 25 nM leucovorin. Additional results are shown for HCT116 (colon tumor cells (CTC)), IGROV1 (epithelial ovarian cancer (EOC) cells), H460 (non-small cell lung cancer (NSCLC) cells), MIAPaCa-2 (pancreatic cancer (PaC) cells), and HPAC (PaC).
(§3) For proliferation assays with the CHO cell lines, the cells were treated with drugs (0-1 µM) in a 96-well plate (2000 cells/well) in glycine-free, nucleoside-free folate-free RPMI supplemented with 10% dialyzed fetal bovine serum, 1% penicillin/streptomycin, 2 mM L-glutamine, and 25 nM leucovorin (final volume 200 µL) over a 96 h incubation period at 37° C. with 5% CO2. The drugs were dissolved in DMSO; an equivalent amount of DMSO was added to the control (no addition) samples. To quantify viable cells, the media was removed and plates were washed once with 100 µL Dulbecco’s Phosphate-Buffered Saline (PBS), after which 100 µL PBS and 20 µL Cell Titer-blue (Promega) were added. Relative cell numbers were proportional to the fluorescence measured with a fluorescence plate reader (590 nm emission, 560 nm excitation). Background fluorescence (cell-free wells treated with Cell Titer-blue) was subtracted and these corrected values were normalized to results for cells treated in an identical manner without drugs.

[4] = tested on: IGROV1 (EOC); test: proliferation assay, IGROV1 epithelial ovarian cancer cells; format: cell-based, human; conditions: folate-/glycine-free RPMI1640 with 25 nM leucovorin; read-out: IC50s (SE) IGROV1 (EOC)
Method: as §2, §1

[5] = tested on: HPAC (PaC); test: proliferation assay, HPAC pancreatic cancer cells; format: cell-based, human; conditions: folate-/glycine-free RPMI1640 with 25 nM leucovorin; read-out: IC50s (SE) HPAC (PaC)
Method: as §2, §1

[6] = tested on: PC43-10 (RFC) (CHO); test: proliferation assay, PC43-10 CHO cells expressing RFC only; format: cell-based, Chinese hamster; conditions: folate-/glycine-free RPMI1640 with 25 nM leucovorin; 96 h; drug 0-1000 nM; read-out: IC50s (SE) PC43-10 (RFC) (CHO)
Method: as §2
(§4) Cell culture and proliferation/protection assays. The HCT116 cell lines including the serine hydroxymethyltransferase (SHMT) 1, SHMT2, and methylene THF dehydrogenase 2 (MTHFD2) knockout (KO) cells were previously described (47,53). The H460 cell line was obtained from the American Type Culture Collection (Manassas, VA), whereas the MIA PaCa-2 cells were provided by Dr. Yubin Ge (Karmanos Cancer Institute). Cell lines were verified by STR analysis by Genetica DNA Laboratories (Burlington, NC). MTXRIIOua^R2-4 (i.e. R2) Chinese hamster ovary (CHO) cells were generously provided by Dr. Wayne Flintoff (University of Western Ontario) (54). From this parental R2 cell line, human RFC and PCFT were individually transfected to generate the isogenic CHO cell lines designated PC43-10 (RFC) and R2/PCFT4 (PCFT) (55-57). Human tumor cell lines were cultured in folate-free RPMI supplemented with 10% dialyzed fetal bovine serum (Sigma-Aldrich), 1% penicillin/streptomycin solution, 2 mM L-glutamine, and 25 nM leucovorin in a humidified atmosphere at 37° C. in the presence of 5% CO2 and 95% air. The CHO cell lines were cultured in alpha-minimal essential medium (alpha-MEM) supplemented with 10% bovine calf serum, 1% penicillin/streptomycin solution, and 2 mM L-glutamine. Additionally, the transfected CHO cell lines (i.e. R2/PCFT4 and PC43-10) were maintained under continuous selection with 1 mg/ml of G418.
as §3, with “The drugs were dissolved in DMSO; an equivalent amount of DMSO was added to the control (no addition) samples.” left out

[7] = tested on: MIA PaCa-2 (PaC); test: proliferation assay, MIA PaCa-2 pancreatic cancer cells; format: cell-based, human; conditions: folate-/glycine-free RPMI1640 with 25 nM leucovorin; 96 h; read-out: IC50s (SE) MIA PaCa-2 (PaC)
Method: as §2, §4, §1

[8] = tested on: human MIA PaCa-2 pancreatic adenocarcinoma xenografts; test: in vivo efficacy trial with MIA PaCa-2 pancreatic cancer xenografts; parameters: species or system SCID mice
Method: Female ICR SCID mice (10 weeks old; 19 g average body weight) were implanted bilaterally with human MIA PaCa-2 tumors. […] The mice were weighed and tumors were measured with a caliper two-to-three times weekly; mice were sacrificed when the cumulative tumor burden reached 1500 mg. Tumor weights were estimated from two-dimensional measurements, where tumor mass (in mg) = (a x b^2)/2, and a and b are the tumor length and width in mm, respectively. The tumor masses from both tumors on each mouse were added together, and the total mass per mouse was used for calculations of anti-tumor activity. Quantitative end-points include: (i) tumor growth delay [T-C, where T is the median time in days required for the treatment group tumors to reach a predetermined size (e.g., 1000 mg), and C is the median time in days for the control group tumors to reach the same size; tumor-free survivors are excluded from these calculations]; and (ii) T/C (in percent) when treatment (T) and control (C) groups for the control groups reached 700 mg in size (exponential growth phase). The median value of each group was determined (including zeros). Mouse weights were monitored as a gauge of drug toxicity.
Female ICR SCID mice (10 weeks old; 19 g average body weight) were implanted bilaterally with human MIA PaCa-2 PaC tumors.
In vivo efficacy trial with MIA PaCa-2 pancreatic cancer xenografts. Methods for in vivo maintenance of MIA PaCa-2 tumor xenografts and drug efficacy evaluations are analogous to those previously described (58, 62-67). MIA PaCa-2 human pancreatic cancer cells (5 × 10^6 cells/flank) were bilaterally implanted subcutaneously with tumor fragments (30-60 mg) with a 12-gauge trocar in female […] SCID mice (NCI Animal Production Program). The mice were 10 weeks old on day 0 (tumor implant) with an average body weight of 19 g. For the efficacy trial, the mice were maintained on either a folate-deficient diet from Harlan-Teklad (TD.00434) starting 14 days before subcutaneous tumor implant to ensure serum folate levels would approximate those of humans. A separate cohort of mice was fed a folate-replete control diet from Lab Diet (5021). Mice were supplied with food and water ad libitum. Serum folate concentrations were monitored prior to tumor implant and post study by Lactobacillus casei bioassay (68). The mice in each group (folate-deficient and standard diet) were pooled before unselective distribution to the treatment and control groups. […] The drugs were dissolved in 5% ethanol (v/v), 1% Tween-80 (v/v), and 0.5% NaHCO3 and were administered intravenously (0.2 ml/injection). The mice were weighed and tumors were measured with a caliper two-to-three times weekly; mice were sacrificed when the cumulative tumor burden reached 1500 mg. Tumor weights were estimated from two-dimensional measurements, where tumor mass (in mg) = (a × b^2)/2, and a and b are the tumor length and width in mm, respectively. The tumor masses from both tumors on each mouse were added together, and the total mass per mouse was used for calculations of anti-tumor activity. Quantitative end-points include: (i) tumor growth delay [T-C, where T is the median time in days required for the treatment group tumors to reach a predetermined size (e.g., 1000 mg), and C is the median time in days for the control group tumors to reach the same size; tumor-free survivors are excluded from these calculations]; and (ii) T/C (in percent) when treatment (T) and control (C) groups for the control groups reached 700 mg in size (exponential growth phase). The median value of each group was determined (including zeros). Mouse weights were monitored as a gauge of drug toxicity.

[9] = IV, AGF291 Q6dx3 start d3, total 23.5 mg/kg, Gemcitabine Q4dx4 start d3, total 480 mg/kg

Ki SHMT2 [2]: no inhibition
SMILES: Nc1nc2[nH]c(CCCc3ccc(C(=O)N[C@@H](CCC(=O)O)C(=O)O)s3)cc2c(=O)[nH]1 [AGF94, reference compound]
protection from growth inhibition by AICA ([1]; AICA 320 µM): completely protective
protection from growth inhibition by adenosine ([1]; adenosine 60 µM, up to 10 µM drug): fully protective
protection from growth inhibition by glycine ([1]; glycine 130 µM): no effect

IC50 [4]: 229 nM
IC50 [5]: 167 nM
IC50 [7]: > 1000 nM
SMILES: Nc1nc2ccn(CCCc3ccc(C(=O)N[C@@H](CCC(=O)O)C(=O)O)c(F)c3)c2c(=O)[nH]1 [AGF359]
IC50 [3]: 525 nM
IC50 [6]: 233 nM

weight loss (median nadir) ([8]; nadir on day 17 for AGF291, day 6 for GEM, completely reversible after cessation of therapy): 12%
SMILES: Nc1ccn([C@@H]2O[C@H](CO)[C@@H](O)C2(F)F)c(=O)n1 [Gemcitabine, reference compound]
Mean Body Weight Loss (g/mouse) [8, 9]: -2.4 g/mouse
Percent Body Weight Loss [8, 9]: -12.2%
median tumor burden on day 14 ([8]; day 14, control cohort 1321 mg): 255 mg
Median Tumor Burden in mg on d16 (range) ([8]; day 16, IV, AGF291 total 23.5 mg/kg, Gemcitabine total 480 mg/kg): 445 (150-527) mg
Tumor Free on d52 ([8]; day 52, mice tumor free/total): 0/5
Tumor Growth Delay (T-C) ([8]; median T-C to reach 1000 mg, AGF291 total 23.5 mg/kg, Gemcitabine total 480 mg/kg): 7.5 days
Time to 1000 mg in days (range) ([8]; median, IV, AGF291 total 23.5 mg/kg, Gemcitabine total 480 mg/kg): 20 (19-21) days
T/C% ([8]; treated/control median tumor burden, AGF291 7.75 mg/kg/inj Q6dx3, GEM 120 mg/kg/inj every 4 days, start day 3): 26%
